Values after ≈ are worked out from the molar mass of the structure shown. Read-outs that look alike come from different tables or passages of the source.
Experiments:
Experiment in all cases: Bactericidal activity test (MBC measurement)
[1] = system: E. coli ATCC 25922; assay type: cell-based, Escherichia coli
Method: (§1) Each strain was cultured in Trypticase Soy agar medium for 18 to 20 hr, suspended in 0.1% peptone saline, and prepared to OD 600 nm, 1.0 McFarland. The suspension was further diluted with 0.1% peptone saline to give a test bacteria solution (targeted value; 2×10^7 CFU/mL).
(§2) At 0.5, 1 and 3 min from the start of the reaction, a part of the reaction mixture was sampled and mixed with an equal amount of a neutralizing agent (10% Tween 80, 3% lecithin/aqueous solution) to terminate the bactericidal reaction. The reaction mixture was inoculated to a 96 well microplate dispensed with 180 μL of Tripticase Soy liquid medium in advance, and statically cultured at 37° C. for 20 to 24 hr. Thereafter, the presence or absence of growth was visually evaluated, and the minimum concentration at which growth was not observed was taken as the minimal bactericidal concentration (MBC value) of each action time. The numerical values in the Tables show MBC, the unit is μg/mL, S. aureus means Staphylococcus aureus, MRSA means methicillin-resistant Staphylococcus aureus, E. coli means Escherichia coli, and P. aeruginosa means Pseudomonas aeruginosa.

[2] = system: P. aeruginosa ATCC 27853; assay type: cell-based, Pseudomonas aeruginosa
Method: as §1, §2

[3] = system: S. aureus ATCC 6538; assay type: cell-based, Staphylococcus aureus
Method: as §1, §2

[4] = system: MRSA ATCC 33591; assay type: cell-based, methicillin-resistant Staphylococcus aureus
Method: as §1, §2

[5] = Escherichia coli, ATCC25922, 0.5 min, E. coli ATCC 25922, action time 0.5 min, read-out: MBC
[6] = Escherichia coli, ATCC25922, 1 min, E. coli ATCC 25922, action time 1 min, read-out: MBC
[7] = Escherichia coli, ATCC25922, 0.05 h, E. coli ATCC 25922, action time 3 min, read-out: MBC
[8] = Pseudomonas aeruginosa, ATCC27853, 0.5 min, P. aeruginosa ATCC 27853, action time 0.5 min, read-out: MBC
[9] = Pseudomonas aeruginosa, ATCC27853, 1 min, P. aeruginosa ATCC 27853, action time 1 min, read-out: MBC
[10] = Pseudomonas aeruginosa, ATCC27853, 0.05 h, P. aeruginosa ATCC 27853, action time 3 min, read-out: MBC
[11] = Staphylococcus aureus, ATCC6538, 0.5 min, S. aureus ATCC 6538, action time 0.5 min, read-out: MBC
[12] = Staphylococcus aureus, ATCC6538, 1 min, S. aureus ATCC 6538, action time 1 min, read-out: MBC
[13] = Staphylococcus aureus, ATCC6538, 0.05 h, S. aureus ATCC 6538, action time 3 min, read-out: MBC
[14] = Staphylococcus aureus, 0.5 min, MRSA ATCC 33591, action time 0.5 min, read-out: MBC
[15] = Staphylococcus aureus, 1 min, MRSA ATCC 33591, action time 1 min, read-out: MBC
[16] = Staphylococcus aureus, 0.05 h, MRSA ATCC 33591, action time 3 min, read-out: MBC

Compound `CCCCCCCCCCNC1=NC(N2Cc3ccccc3C2)=NC(C)(C)N1` [Example 12, N-decyl-4-(1,3-dihydro-2H-isoindol-2-yl)-6,6-dimethyl-1,6-dihydro-1,3,5-triazine-2-amine] has an MBC [1, 5] of 18.8 µg/mL (≈ 49 µM), an MBC [1, 6] of 18.8 µg/mL (≈ 49 µM) and an MBC [1, 7] of 15.7 µg/mL (≈ 40.9 µM). The MBC [2, 8] was 37.5 µg/mL (≈ 97.8 µM), the MBC [2, 9] was 37.5 µg/mL (≈ 97.8 µM) and the MBC [2, 10] was 18.8 µg/mL (≈ 49 µM). For the same compound, the MBC [3, 11] was 25 µg/mL (≈ 65.2 µM), the MBC [3, 12] was 18.8 µg/mL (≈ 49 µM) and the MBC [3, 13] was 4.7 µg/mL (≈ 12.3 µM). For the same compound, the MBC [4, 14] was 25 µg/mL (≈ 65.2 µM), the MBC [4, 15] was 12.5 µg/mL (≈ 32.6 µM) and the MBC [4, 16] was 6.3 µg/mL (≈ 16.4 µM).
For `CC(=O)O.CCCCCCCCNC1=NC(C)(C)NC(N(CC)Cc2ccccc2)=N1` [Example 13, 1,6-dihydro-6,6-dimethyl-N^4-octyl-N^2-benzyl-N^2-ethyl-1,3,5-triazine-2,4-diamine acetate], the MBC [1, 5] was 25 µg/mL, the MBC [1, 6] was 18.8 µg/mL and the MBC [1, 7] was 12.5 µg/mL. It also gave an MBC [2, 8] of 18.8 µg/mL, an MBC [2, 9] of 18.8 µg/mL and an MBC [2, 10] of 18.8 µg/mL. The MBC [3, 11] was 50 µg/mL, the MBC [3, 12] was 25 µg/mL and the MBC [3, 13] was 18.8 µg/mL. The MBC [4, 14] was 62.5 µg/mL, the MBC [4, 15] was 37.5 µg/mL and the MBC [4, 16] was 18.8 µg/mL.
With `CCCCCCCCNC1=NC(C)(C)NC(N(C)CCc2ccccc2)=N1` [Example 14, 1,6-dihydro-6,6-dimethyl-N^4-octyl-N^2-methyl-N^2-(2-phenylethyl)-1,3,5-triazine-2,4-diamine] the MBC [1, 5] was 25 µg/mL (≈ 67.3 µM), the MBC [1, 6] was 25 µg/mL (≈ 67.3 µM) and the MBC [1, 7] was 12.5 µg/mL (≈ 33.6 µM). For the same compound, the MBC [2, 8] was 25 µg/mL (≈ 67.3 µM), the MBC [2, 9] was 18.8 µg/mL (≈ 50.6 µM) and the MBC [2, 10] was 12.5 µg/mL (≈ 33.6 µM). It also gave an MBC [3, 11] of 75 µg/mL (≈ 202 µM), an MBC [3, 12] of 37.5 µg/mL (≈ 101 µM) and an MBC [3, 13] of 18.8 µg/mL (≈ 50.6 µM). The MBC [4, 14] was 62.5 µg/mL (≈ 168 µM), the MBC [4, 15] was 31.3 µg/mL (≈ 84.2 µM) and the MBC [4, 16] was 15.7 µg/mL (≈ 42.3 µM).
Compound `CCCCCCCCCCNC1=NC(C)(C)NC(N(C)CCC)=N1` [Example 16, 1,6-dihydro-6,6-dimethyl-N^4-decyl-N^2-methyl-N^2-propyl-1,3,5-triazine-2,4-diamine] has an MBC [1, 5] of 18.8 µg/mL (≈ 55.7 µM), an MBC [1, 6] of 18.8 µg/mL (≈ 55.7 µM) and an MBC [1, 7] of 9.4 µg/mL (≈ 27.8 µM). It also gave an MBC [2, 8] of 25 µg/mL (≈ 74.1 µM), an MBC [2, 9] of 18.8 µg/mL (≈ 55.7 µM) and an MBC [2, 10] of 18.8 µg/mL (≈ 55.7 µM). It also gave an MBC [3, 11] of 75 µg/mL (≈ 222 µM), an MBC [3, 12] of 50 µg/mL (≈ 148 µM) and an MBC [3, 13] of 25 µg/mL (≈ 74.1 µM). The MBC [4, 14] was 100 µg/mL (≈ 296 µM), the MBC [4, 15] was 37.5 µg/mL (≈ 111 µM) and the MBC [4, 16] was 18.8 µg/mL (≈ 55.7 µM).
`CCCCCCCCCCCNC1=NC(C)(C)NC(N(C)Cc2ccc(N)cc2)=N1.Cl.Cl` [Example 17, 1,6-dihydro-6,6-dimethyl-N^4-undecyl-N^2-(4-aminobenzyl)-N^2-methyl-1,3,5-triazine-2,4-diamine dihydrochloride] gave an MBC [1, 5] of 25 µg/mL, an MBC [1, 6] of 18.8 µg/mL and an MBC [1, 7] of 12.5 µg/mL. It also gave an MBC [2, 8] of 37.5 µg/mL, an MBC [2, 9] of 18.8 µg/mL and an MBC [2, 10] of 9.4 µg/mL. For the same compound, the MBC [3, 11] was 25 µg/mL, the MBC [3, 12] was 15.7 µg/mL and the MBC [3, 13] was 7.8 µg/mL. It also gave an MBC [4, 14] of 18.8 µg/mL, an MBC [4, 15] of 12.5 µg/mL and an MBC [4, 16] of 6.3 µg/mL.
In the case of `CCCCCCCCCCCCCCN(C)C1=NC(C)(C)NC(N)=N1.Cl` [Example 18, N^4-tetradecyl-N^4-methyl-1,6-dihydro-6,6-dimethyl-1,3,5-triazine-2,4-diamine hydrochloride], the MBC [1, 5] is reported as 12.5 µg/mL, the MBC [1, 6] is reported as 12.5 µg/mL and the MBC [1, 7] is reported as 6.3 µg/mL. The MBC [2, 8] was 18.8 µg/mL, the MBC [2, 9] was 12.5 µg/mL and the MBC [2, 10] was 9.4 µg/mL. For the same compound, the MBC [3, 11] was 18.8 µg/mL, the MBC [3, 12] was 12.5 µg/mL and the MBC [3, 13] was 4.7 µg/mL. For the same compound, the MBC [4, 14] was 18.8 µg/mL, the MBC [4, 15] was 9.4 µg/mL and the MBC [4, 16] was 4.7 µg/mL.
Compound `N=C(NCCCCCCNC(=N)NC(=N)Nc1ccc(Cl)cc1)NC(=N)Nc1ccc(Cl)cc1.O=C(O)[C@H](O)[C@@H](O)[C@H](O)[C@H](O)CO.O=C(O)[C@H](O)[C@@H](O)[C@H](O)[C@H](O)CO` [control, chlorhexidine gluconate, reference compound] has an MBC ([1]; E. coli ATCC 25922, action time 0.5 min) of 100 µg/mL, an MBC ([2]; P. aeruginosa ATCC 27853, action time 0.5 min) greater than 200 µg/mL and an MBC ([3]; S. aureus ATCC 6538, action time 0.5 min) greater than 200 µg/mL. For the same compound, the MBC ([3]; S. aureus ATCC 6538, action time 1 min) was greater than 200 µg/mL, the MBC ([3]; S. aureus ATCC 6538, action time 3 min) was greater than 200 µg/mL and the MBC ([4]; MRSA ATCC 33591, action time 0.5 min) was greater than 200 µg/mL. It also gave an MBC ([4]; MRSA ATCC 33591, action time 1 min) greater than 200 µg/mL and an MBC ([4]; MRSA ATCC 33591, action time 3 min) of 200 µg/mL.
